In patent US20250387388A1, “COMPOUND AS TRK INHIBITOR AND/OR RET INHIBITOR AND USE THEREOF” (Medinno Pharmaceutical Technology (Zhuhai) Co., Ltd., priority 2022, published 2025):
Like-named read-outs stand apart in the source and are kept apart here. Blank lines part the entries; values can stand above or below the compound they belong to.

What was measured:
TRKA = TRKA (Homo sapiens (Human), UniProt P04629); test: Inhibitory activity on TRKA (ADP-Glo Kinase Assay)
TRKB = TRKB (Homo sapiens (Human), UniProt Q16620); test: Inhibitory activity on TRKB (ADP-Glo Kinase Assay)
TRKC = TRKC (Homo sapiens (Human), UniProt Q16288); test: Inhibitory activity on TRKC (ADP-Glo Kinase Assay)
acne model in rabbits = test: Acne model in rabbits (coal tar + Propionibacterium acnes); format: in vivo, New Zealand white rabbits; conditions: 1% Clindamycin gel 0.5 g/kg once per day
Method: Modeling: Rabbits were acclimated for 7 days. On the right inner ear canal exit of the rabbits, a 2 cm×2 cm area was treated with 2% coal tar solution once a day, 0.5-1 mL each time, for 26 consecutive days. […] On the 8th day, Propionibacterium acnes was injected intradermally at 3-4 sites on the rabbit ears, 50 μl per rabbit, injected every other day for a total of 5 times. Treatment was started randomly on the 9th day after the last injection.
Rabbits were treated according to their groups. The blank group received no treatment. […] The model group received an equal amount of vehicle treatment, with the same application method and duration as the test drug groups.
Twenty-four hours after the last administration, a 2.8 cm punch was used to prepare ear samples at the application site, and their weight was measured. The ears from the modeling site were fixed with 4% paraformaldehyde, and consecutive sections (3 slices) were taken from the same location for HE staining and histopathological analysis. At the same time, the area of 3 hair follicles and the diameter of 3 sebaceous glands were measured to calculate the average values. Blood was drawn from the heart and centrifuged to obtain serum, and the levels of interleukin-1α (IL-1α), interleukin-6 (IL-6), and dihydrotestosterone (DHT) in serum were determined according to the ELISA kit instructions.
Tissue samples from animal ears were excised, fixed in 4% paraformaldehyde, dehydrated, embedded in paraffin, and sectioned and HE stained for observation of histopathological morphology changes. The tissue samples were fixed in 4% paraformaldehyde at normal temperature and the taken ears tissue was rinsed with running water for several hours, dehydrated through a series of ethanol solutions (70%, 80%, 90%), and then treated with a mixture of pure alcohol and xylene for 15 minutes, followed by xylene I for 15 minutes and xylene II for 15 minutes (until transparent). The tissue was then placed in a mixture of xylene and paraffin at a volume ratio of 1:1 for 15 minutes, followed by immersion with paraffin I and paraffin II each for 50-60 minutes. The tissue was embedded in paraffin and sectioned, and the sections were baked, dewaxed and hydrated in distilled water. The resulting sections were then stained in hematoxylin solution for 3 minutes, differentiated in a hydrochloric acid alcohol solution for 15 seconds, slightly washed, blued in a return blue solution for 15 seconds, rinsed with running water, stained with eosin for 3 minutes, rinsed with running water, dehydrated, cleared, and mounted for microscopic examination.
A double-antibody one-step sandwich Enzyme-linked Immunosorbent Assay (ELISA) ket was used. A capture antibody for the mouse target indicators was pre-coated onto microplate wells, to which samples, standards, and HRP-labeled detection antibodies were added sequentially, followed by incubation and thorough washing. TMB substrate was added for color development, which turned into blue in the presence of peroxidase and then into yellow after acidification. The depth of color was positively correlated with the concentration of the target in the samples. The absorbance (OD450 value) was measured at a wavelength of 450 nm using the microplate reader, and the sample concentration was calculated.

[1] = system: imiquimod-induced psoriasis model; test: Imiquimod-induced psoriasis model in mice; conditions: for Clinical Score (mean ± standard error) / Skin Thickness Score (mean ± standard error): Calcitriol 75 mg/mice topical QD
[2] = system: ovalbumin-induced asthma model in mice; test: Ovalbumin-induced asthma model in mice; format: in vivo, Balb/c mice; conditions: vs. vehicle (model) group; nasal administration BID 5 days: MDI-1228 3 mg/kg, MDI-1288 3 mg/kg, MDI-1233 1, 3, 10 mg/kg; dexamethasone 1 mg/kg gavage QD
Method: After 7 days of acclimatization, animals were randomly grouped based on their body weight. The experiment was divided into 8 groups, with 8 mice in each group, as detailed in the table below.
• Preparation of Immunogen: Weigh an appropriate amount of OVA, to which an appropriate amount of PBS was added, to achieve a final concentration of 0.1 mg/ml. Then, an equal volume of aluminum adjuvant was added, and the resulting mixture was mixed well, and stored at 4° C., which was prepared before use. • Preparation of Sensitizer (5% OVA): Weigh an appropriate amount of OVA, to which an appropriate amount of PBS was added, to achieve a final concentration of 5%. The resulting mixture was mixed well, and store it at 4° C. for later use, which was prepared before use. • Preparation of Vehicle: Add 200 μl of Tween 80 to 100 ml of saline, and mix it well. […] Mix it well, and store it at 4° C. for later use. […] Mix it well, and store it at 4° C. for later use. […] Mix it well, and store it at 4° C. for later use. The solution was prepared once every three days.
• Immunization: On days 0, 7, 14, and 21, 200 μl of PBS was injected intraperitoneally for the first group, and 200 μl of (10 μg) OVA/aluminum adjuvant emulsion was injected intraperitoneally for groups 2-8. • Sensitization: From days 28 to 32, the first group of animals was exposed to nebulized PBS in a nebulization box for 20 minutes, and the groups 2-8 were exposed to nebulized 5% OVA in a nebulization box for 20 minutes. And then, they were removed. The sensitization was conducted at 12:30 PM daily. • Administration: The medicine was administrated twice a day at 9 AM and 5 PM via nasal drops. Dexamethasone (Dex) was administered by gavage once a day at 9 AM.
Serum IgE: Blood was collected from the orbits of animals after carbon dioxide euthanasia, and plasma was separated and stored at −40 degrees for plasma IgE detection.
Bronchoalveolar Lavage Fluid (BALF) Cell Count: An appropriate amount of foetal bovine serum was weighted and dissolved in PBS to a final concentration of 1%. After orbital blood collection, the trachea was exposed, and a 1 ml syringe needle was replaced with a mouse gavage needle. 0.8 ml of the lavage fluid was aspirated from the syringe and the lungs were lavaged three times. The lavage fluids were collected, and centrifuged at 1000 rpm for 10 minutes, and the supernatant was collected and stored at −40 degrees Celsius. Cells were resuspended with 1 ml of PBS and counted. 100 ul of centrifuged smear was taken and stained with Diff quick and the number of eosinophils, basophils, lymphocytes and macrophages were recorded.
Bronchoalveolar Lavage Fluid IL-5: Bronchoalveolar lavage fluid was collected to detect IL-5.
Pathological scoring criteria were: • A) 0 points: No lymphocyte infiltration; • B) 1 point: Trace lymphocyte infiltration; • C) 2 points: Mild lymphocyte infiltration; • D) 3 points: Moderate lymphocyte infiltration; • E) 4 points: Severe lymphocyte infiltration; • After scoring, the results were calculated and analyzed.

Sequence of TRKC (Q16288 32-839): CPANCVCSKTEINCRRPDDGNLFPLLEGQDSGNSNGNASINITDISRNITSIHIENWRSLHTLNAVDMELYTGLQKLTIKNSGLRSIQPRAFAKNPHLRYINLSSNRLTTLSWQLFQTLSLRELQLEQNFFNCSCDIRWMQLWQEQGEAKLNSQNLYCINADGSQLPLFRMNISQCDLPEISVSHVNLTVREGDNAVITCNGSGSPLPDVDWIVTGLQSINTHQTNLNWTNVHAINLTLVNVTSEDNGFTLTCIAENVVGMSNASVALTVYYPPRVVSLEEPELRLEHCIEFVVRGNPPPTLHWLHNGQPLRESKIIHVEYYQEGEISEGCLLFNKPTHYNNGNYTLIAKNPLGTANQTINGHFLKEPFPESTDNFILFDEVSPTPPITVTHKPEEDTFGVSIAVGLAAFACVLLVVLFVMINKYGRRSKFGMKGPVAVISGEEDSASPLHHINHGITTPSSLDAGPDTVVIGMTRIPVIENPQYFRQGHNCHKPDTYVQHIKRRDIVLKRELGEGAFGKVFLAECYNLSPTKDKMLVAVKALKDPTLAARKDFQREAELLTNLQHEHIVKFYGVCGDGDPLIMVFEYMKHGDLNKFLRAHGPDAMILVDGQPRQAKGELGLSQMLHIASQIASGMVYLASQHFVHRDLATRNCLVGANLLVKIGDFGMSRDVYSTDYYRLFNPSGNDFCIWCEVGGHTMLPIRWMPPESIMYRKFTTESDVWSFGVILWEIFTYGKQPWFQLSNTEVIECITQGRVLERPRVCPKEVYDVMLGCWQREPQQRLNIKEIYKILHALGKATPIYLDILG
Sequence of TRKB (Q16620 32-822): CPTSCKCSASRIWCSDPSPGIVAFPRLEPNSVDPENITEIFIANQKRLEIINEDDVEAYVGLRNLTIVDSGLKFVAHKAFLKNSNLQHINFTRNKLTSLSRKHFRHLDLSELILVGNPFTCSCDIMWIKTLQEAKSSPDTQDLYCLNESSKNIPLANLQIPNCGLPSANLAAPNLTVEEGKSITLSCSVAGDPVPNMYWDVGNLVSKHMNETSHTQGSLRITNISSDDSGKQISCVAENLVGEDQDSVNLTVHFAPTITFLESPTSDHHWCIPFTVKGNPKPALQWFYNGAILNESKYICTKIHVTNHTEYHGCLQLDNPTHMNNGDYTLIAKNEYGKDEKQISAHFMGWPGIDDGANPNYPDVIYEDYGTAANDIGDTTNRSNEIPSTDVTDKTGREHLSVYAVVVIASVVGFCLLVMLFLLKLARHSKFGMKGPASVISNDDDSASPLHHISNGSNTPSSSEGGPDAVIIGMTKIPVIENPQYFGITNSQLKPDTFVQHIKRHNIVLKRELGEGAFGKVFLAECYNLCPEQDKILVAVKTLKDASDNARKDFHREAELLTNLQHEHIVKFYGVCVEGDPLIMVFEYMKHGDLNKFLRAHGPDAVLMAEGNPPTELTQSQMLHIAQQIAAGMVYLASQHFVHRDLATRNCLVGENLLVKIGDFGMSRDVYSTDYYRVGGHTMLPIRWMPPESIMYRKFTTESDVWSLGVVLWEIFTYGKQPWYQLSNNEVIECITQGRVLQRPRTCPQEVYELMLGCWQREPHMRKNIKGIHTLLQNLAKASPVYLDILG
Sequence of TRKA (P04629 33-796 limits assumed): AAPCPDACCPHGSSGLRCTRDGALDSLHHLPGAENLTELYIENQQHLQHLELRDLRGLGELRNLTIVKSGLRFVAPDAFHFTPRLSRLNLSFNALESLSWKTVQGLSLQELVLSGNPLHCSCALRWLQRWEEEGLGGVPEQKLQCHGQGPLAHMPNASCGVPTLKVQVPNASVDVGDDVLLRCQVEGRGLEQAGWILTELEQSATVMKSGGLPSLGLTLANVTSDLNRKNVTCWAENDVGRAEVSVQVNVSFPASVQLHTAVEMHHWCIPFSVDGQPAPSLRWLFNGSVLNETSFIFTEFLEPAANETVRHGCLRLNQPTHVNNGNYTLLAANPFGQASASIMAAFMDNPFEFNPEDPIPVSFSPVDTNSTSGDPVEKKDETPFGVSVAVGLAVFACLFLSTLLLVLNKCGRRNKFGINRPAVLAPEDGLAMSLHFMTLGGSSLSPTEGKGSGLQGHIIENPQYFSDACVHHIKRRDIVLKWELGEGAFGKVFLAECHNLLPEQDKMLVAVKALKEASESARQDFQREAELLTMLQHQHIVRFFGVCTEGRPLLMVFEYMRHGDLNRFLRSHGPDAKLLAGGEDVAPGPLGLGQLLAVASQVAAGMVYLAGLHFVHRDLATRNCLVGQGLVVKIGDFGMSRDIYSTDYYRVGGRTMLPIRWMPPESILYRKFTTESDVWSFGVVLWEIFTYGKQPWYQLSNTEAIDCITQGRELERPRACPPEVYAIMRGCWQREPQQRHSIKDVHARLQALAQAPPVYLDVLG

SMILES: CCc1cc(O)c(F)cc1-c1ccc2c(-c3nc4c([nH]3)CN(S(=O)(=O)C3CC3)C4)n[nH]c2c1 [MDI-218, 4-(3-(5-(cyclopropanesulfonyl)-1,4,5,6-tetrahydropyrrolo[3,4-d]imidazol-2-yl)-1H-indazol-6-yl)-5-ethyl-2-fluorophenol]
IC50 (TRKA; read-out: TRKA IC50, ATP 5 μM): 9.97 nM
IC50 (TRKB; read-out: TRKB IC50, ATP 5 μM): 32.3 nM
IC50 (TRKC; read-out: TRKC IC50, ATP 5 μM): 5.1 nM

SMILES: CCC[C@@H]1C[C@@H](C(=O)N[C@@H]([C@H]2O[C@H](SC)[C@H](O)[C@@H](O)[C@H]2O)[C@H](C)Cl)N(C)C1 [clindamycin, reference compound]
Hair follicle area (acne model in rabbits): not improved
Rabbit ear weight (acne model in rabbits; 2 weeks): did not reduce ear weight

SMILES: CCc1cc(O)c(F)cc1-c1ccc2c(-c3nc4c([nH]3)CN(C(=O)N3CCCC3)C4)n[nH]c2c1 [MDI-231, (2-(6-(2-ethyl-5-fluoro-4-hydroxyphenyl)-1H-indazol-3-yl)-4,6-dihydropyrrolo[3,4-d]imidazol-5-(1H)-yl)(pyrrolidin-1-yl)ketone]
IC50 (TRKA): 2.82 nM
IC50 (TRKB): 5.86 nM
IC50 (TRKC): 1.49 nM

SMILES: C=C1/C(=C\C=C2/CCC[C@]3(C)[C@@H]([C@H](C)CCCC(C)(C)O)CC[C@@H]23)C[C@@H](O)C[C@@H]1O [Calcitriol]
Clinical Score (mean ± standard error) ([1]; Day 0): 0.0 ± 0.00
Skin Thickness Score (mean ± standard error) ([1]; Day 0): 0.0 ± 0.00
Clinical Score (mean ± standard error) ([1]; Day 1): 0.2 ± 0.13
Skin Thickness Score (mean ± standard error) ([1]; Day 1): 0.0 ± 0.00
Clinical Score (mean ± standard error) ([1]; Day 2): 1.2 ± 0.13
Skin Thickness Score (mean ± standard error) ([1]; Day 2): 0.0 ± 0.00
Clinical Score (mean ± standard error) ([1]; Day 3): 3.1 ± 0.28
Skin Thickness Score (mean ± standard error) ([1]; Day 3): 0.7 ± 0.15
Clinical Score (mean ± standard error) ([1]; Day 4): 4.3 ± 0.26
Skin Thickness Score (mean ± standard error) ([1]; Day 4): 1.2 ± 0.20
Clinical Score (mean ± standard error) ([1]; Day 5): 2.9 ± 0.18
Skin Thickness Score (mean ± standard error) ([1]; Day 5): 0.8 ± 0.20
Clinical Score (mean ± standard error) ([1]; Day 6): 2.5 ± 0.17
Skin Thickness Score (mean ± standard error) ([1]; Day 6): 0.5 ± 0.17
Clinical Score (mean ± standard error) ([1]; Day 7): 2.0 ± 0.00
Skin Thickness Score (mean ± standard error) ([1]; Day 7): 0.0 ± 0.00
Inhibition percentage of skin thickness score AUC relative to vehicle control group ([1]; calcitriol 75 mg/mice QD): 64.2%
Skin histopathology ([1]; calcitriol 75 mg/mice QD): a trend of mitigation

SMILES: CCc1cc(O)c(F)cc1-c1ccc2c(-c3nc4c([nH]3)CN(C(=O)c3cnc(N5CCOCC5)cn3)C4)n[nH]c2c1 [MDI-201, (2-(6-(2-ethyl-5-fluoro-4-hydroxyphenyl)-1H-indazol-3-yl)-4,6-dihydropyrrolo[3,4-d]imidazol-5(1H)-yl)(5-morpholinepyrazin-2-yl)ketone]
IC50 (TRKA): 5.76 nM
IC50 (TRKB): 6.14 nM
IC50 (TRKC): 2.2 nM

SMILES: C[C@@H]1C[C@H]2[C@@H]3CCC4=CC(=O)C=C[C@]4(C)[C@@]3(F)[C@@H](O)C[C@]2(C)[C@@]1(O)C(=O)CO [dexamethasone, reference compound]
Bronchoalveolar lavage fluid IL-5 expression level [2]: significantly reduced the expression of IL-5
Inflammatory cell count in bronchoalveolar lavage fluid [2]: significantly reduced the Inflammatory Cell Count
Lung tissue inflammatory cell infiltration (HE pathology) [2]: significantly reduced the lung tissue inflammatory cell infiltration
Serum IgE expression level [2]: significantly reduced the expression of IgE

SMILES: CCc1cc(O)c(F)cc1-c1ccc2c(-c3nc4c([nH]3)CN(C(=O)N3CCCCC3)C4)n[nH]c2c1 [MDI-233]
IC50 (TRKA): 9.01 nM
IC50 (TRKB): 30.4 nM
IC50 (TRKC): 6.32 nM

Further lines, results first:

IC50 (TRKA; read-out: TRKA IC50, ATP 5 μM): 12 nM
IC50 (TRKB; read-out: TRKB IC50, ATP 5 μM): 3.58 nM
IC50 (TRKC; read-out: TRKC IC50, ATP 5 μM): 3.77 nM
SMILES: CCc1cc(O)c(F)cc1-c1ccc2c(-c3nc4c([nH]3)CN(C(=O)NCCO)C4)n[nH]c2c1 [MDI-248, 2-(6-(2-ethyl-5-fluoro-4-hydroxyphenyl)-1H-indazol-3-yl)-N-(2-hydroxylethyl)-4,6-dihydropyrrolo[3,4-d]imidazol-5(1H)-carboxamide]

IC50 (TRKA; read-out: TRKA IC50, ATP 5 μM): 11.4 nM
IC50 (TRKB; read-out: TRKB IC50, ATP 5 μM): 98.8 nM
IC50 (TRKC; read-out: TRKC IC50, ATP 5 μM): 13.1 nM
SMILES: CCOC(=O)N1Cc2nc(-c3n[nH]c4cc(-c5cc(F)c(O)cc5CC)ccc34)[nH]c2C1 [MDI-253, Ethyl 2-(6-(2-ethyl-5-fluoro-4-hydroxyphenyl)-1H-indazol-3-yl)-4,6-dihydropyrrolo[3,4-d]imidazol-5(1H)-carboxylate]

IC50 (TRKB; read-out: TRKB IC50, ATP 5 μM): 2.93 nM
IC50 (TRKC; read-out: TRKC IC50, ATP 5 μM): 0.72 nM
SMILES: CCc1cc(O)c(F)cc1-c1ccc2c(-c3nc4c([nH]3)CN(C(=O)N(C)C)C4)n[nH]c2c1 [MDI-257, 2-(6-(2-ethyl-5-fluoro-4-hydroxyphenyl)-1H-indazol-3-yl)-N,N-dimethyl-4,6-dihydropyrrolo[3,4-d]imidazol-5(1H)-carboxamide]

IC50 (TRKA): 1.07 nM
IC50 (TRKB): 1.27 nM
IC50 (TRKC): 0.65 nM
SMILES: CCc1cc(O)c(F)cc1-c1ccc2c(-c3nc4c([nH]3)CN(C(=O)N3CCOCC3)C4)n[nH]c2c1 [MDI-234, (2-(6-(2-ethyl-5-fluoro-4-hydroxyphenyl)-1H-indazol-3-yl)-4,6-dihydropyrrolo[3,4-d]imidazol-5-(1H)-yl)(morpholino)ketone]

IC50 (TRKA): 0.23 nM
IC50 (TRKB): 1.06 nM
IC50 (TRKC): 0.2 nM
SMILES: CCc1cc(O)c(F)cc1-c1ccc2c(-c3nc4c([nH]3)CN(C(=O)N3CCN(CC)CC3)C4)n[nH]c2c1 [MDI-236, (2-(6-(2-ethyl-5-fluoro-4-hydroxyphenyl)-1H-indazol-3-yl)-4,6-dihydropyrrolo[3,4-d]imidazol-5-(1H)-yl)(4-ethylpiperazin-1-yl)ketone]
